Laboratory results from patent publication US20090123979A1, “Methods of reducing the inhibitory effect of a tannin on the enzymatic hydrolysis of cellulosic material” (Novozymes, Inc., priority 2007, published 2009).

Legend:
[1] = tested on: Cellulolytic Enzyme Composition #1; assay: AVICEL hydrolysis by Cellulolytic Enzyme Composition #1 with added compounds; type: biochemical, Trichoderma reesei; conditions: AVICEL pre-incubated with 1 mM tannic acid 1 hour at 50° C., then washed
Excerpt: (§1) Initial hydrolysis rates were obtained from the first two hydrolysis time points (i.e., soluble sugar measurements) (with <20% hydrolysis extent in general, rate=(hydrolysis difference)/(time difference)). Double-reciprocal plots (1/(initial rate) vs 1/[cellulose] as function of tannic acid concentration) indicated a “mixed” type inhibition, but their complexity prevented extraction of simple inhibitor constants. Initial rate vs tannic acid concentration yielded an I50 (inhibitor concentration leading to 50% loss of hydrolysis rate) of 0.2±0.1 or 0.27±0.07 mM on PASC or AVICEL® hydrolysis, respectively
(§2) To examine where tannic acid exerted its inhibition, a series of hydrolysis reactions of AVICEL® by Cellulolytic Enzyme Composition #1 was performed in which AVICEL® and Cellulolytic Enzyme Composition #1 were used fresh or after pre-incubation with tannic acid. […] (with detectable precipitation seen), the pre-incubated Cellulolytic Enzyme Composition #1 was gel-filtered using BioSpin 6 desalting columns (Bio-Rad, Hercules, Calif., USA). […] Hydrolysis of untreated or buffer-only pre-incubated AVICEL® and Cellulolytic Enzyme Composition #1, with or without inhibitors, served as controls.

[2] = tested on: T1, Cellulolytic Enzyme Composition #1; assay: as above; type: biochemical, Trichoderma reesei
T1 construct: other: PASC hydrolysis; mean ± SD; 0.01 g enzyme; Dixon plot linear regression intercept (1/Rate); other: AVICEL; rate from hydrolysis difference (%) at 0 and 6 hours; rate from hydrolysis difference; fused on or other part: The A. oryzae beta-glucosidase is the mature chain secreted behind the Humicola insolens endoglucanase V signal peptide, which is cleaved off
Excerpt: as §1, §2

[3] = 25 g AVICEL, 0.25 g enzyme per liter, 1 mM tannic acid, or 5 mM ellagic acid or 10 mM methyl gallate plus 1 mM glucose pentaacetate
[4] = AVICEL, rate from hydrolysis difference (%) at 0 and 6 hours

**Q.** How did the “effect of pre-incubating AVICEL with inhibitor on hydrolysis” value [1] turn out when `O=C(OC[C@H]1O[C@@H](OC(=O)c2cc(O)c(O)c(OC(=O)c3cc(O)c(O)c(O)c3)c2)[C@H](OC(=O)c2cc(O)c(O)c(OC(=O)c3cc(O)c(O)c(O)c3)c2)[C@@H](OC(=O)c2cc(O)c(O)c(OC(=O)c3cc(O)c(O)c(O)c3)c2)[C@@H]1OC(=O)c1cc(O)c(O)c(OC(=O)c2cc(O)c(O)c(O)c2)c1)c1cc(O)c(O)c(OC(=O)c2cc(O)c(O)c(O)c2)c1` [tannic acid, Tannic acid] was run?
**A.** did not affect the hydrolysis

**Q.** And the “loss in initial rate of AVICEL hydrolysis” value [2, 3]?
**A.** ~90%

**Q.** What about the “loss in the extent of AVICEL hydrolysis at day 8” value [2, 3] of the same compound?
**A.** ~70%

**Q.** And the Ki ([2]; AVICEL hydrolysis, Cellulolytic Enzyme Composition #1, OPC in flavanone-equivalent subunits, read-out: inhibition constant Ki (x-intercept of Dixon plot))?
**A.** ~130 µM

**Q.** And the IC50 ([2]; AVICEL hydrolysis, 0.01 g enzyme per liter, pH 5.0, 50° C., read-out: I50 (inhibitor concentration leading to 50% loss of hydrolysis rate))?
**A.** 270 ± 70 µM

**Q.** What about the “Dixon plot linear regression intercept (1/Rate)” value [2, 4] of the same compound?
**A.** 0.045±0.017

**Q.** What about the “Dixon plot linear regression slope (1/Rate vs inhibitor concentration)” value [2, 4] of the same compound?
**A.** 0.356±0.033

**Q.** And the “activity loss of pre-incubated Cellulolytic Enzyme Composition #1” value ([2]; enzyme pre-incubated with 1 mM tannic acid 1 hour at 50° C., then gel-filtered)?
**A.** approximately 80%

**Q.** And the “concentration dependence of inhibition of AVICEL hydrolysis” value ([2]; tannic acid 0.05 mM to 1 mM, OPC 1 mM to 10 mM, 23 g AVICEL and 0.25 g enzyme per liter)?
**A.** increasingly inhibitory
